Experimental data published in patent US10172822B2, “Pharmaceutical use of 3-benzylsulfonylpropionitrile” (Olatec Therapeutics LLC, priority 2013, dated 2019).

How the values were obtained:
[1] = system: arachidonic acid-induced ear swelling; assay: topical arachidonic acid-induced ear swelling model in mice; format: in vivo
Method: The test compound, indomethacin (positive control), and vehicle were evaluated for anti-inflammatory activity in a topical arachidonic acid-induced ear swelling model in mice. Male ICR mice weighing 22±2 g were used and randomly divided; the test compound and vehicle control had 10 mice, and indomethacin had 5 mice. Arachidonic Acid (0.5 mg in 20 μl of acetone:ethanol/1:1) was applied topically to the anterior and posterior surfaces of the right ear of each mice. Test substances and vehicle, as listed in Table 1 were similarly applied 30 min before and 15 min after arachidonic acid application. The thickness of the right ear and the left ear was measured and the difference calculated as an indication of the inflammation in the right ear. Ear swelling was measured by a Dyer model micrometer gauge at 60 and 90 minutes after arachidonic acid application as an index of inflammation. Percent inhibition was calculated according to the formula: Ic−It/Ic×100, where Ic and It refers to increase of ear thickness (mm) in control and treated mice, respectively. ANOVA and Dunnett's test were employed to ascertain significant difference between vehicle control and treated groups. Significance is set at P<0.05 level.

[2] = system: tail flick reaction to heat; assay: tail flick test in mice (49° C. water bath); format: in vivo
Method: The tail flick test is a test of the pain response in animals. The tail flick test is used in basic pain research and to measure the effectiveness of analgesics, by observing the tail flick reaction to heat in an animal. This test assesses the nociceptive response to a local pain stimulus, and the ability of a drug to inhibit this response.
Vehicle control (DMSO) and test compound 3-benzylsulfonylpropionitrilein in DMSO were administered by oral gavage to mice with a volume of 5 mL/kg, immediately prior to testing, at time zero. The test compound was administered at a dosage of 500 mg/kg in DMSO. Positive control morphine in water was administered at time zero by subcutaneous injection at 8 mg/kg to mice. […] The purpose of morphine is […] to serve as a comparison with the test compound. Each group had 10 mice.
The response of mice to heat stimulus was evaluated by measuring the time of tail-flick or tail-flick latency from 49° C. water bath. Briefly, the animal was held with its tail hanging down. Approximately 2 inches of the tail was immersed in a beaker of water at 38±1° C. for about 30 seconds, and this was done twice to acclimate the animal to the procedure.
Subsequently, approximately 2 inches of the tail was immersed in a beaker of water at 49±1° C., at which point a timer was started.
Tail flick measurements were made at 0, 30, 60, and 120 minutes post administration of the dosage of test compound, vehicle, or morphine. An ANOVA was done, and if p<0.05, a Dunnett's t test was employed to calculate significant difference between vehicle control and test compound treated groups. A pairwise Student's t test was used to calculate differences between the morphine group and the control group. […] Analysis with p-values <0.05 is considered significant.

In the case of `COc1ccc2c(c1)c(CC(=O)O)c(C)n2C(=O)c1ccc(Cl)cc1` [Indomethacin, indomethacin, reference compound], the “% Inhibition of ear swelling” value ([1]; topical application 30 min before and 15 min after arachidonic acid, measured at 90 minutes after arachidonic acid, relative to vehicle) is reported as 58%.
With `CN1CC[C@]23c4c5ccc(O)c4O[C@H]2[C@@H](O)C=C[C@H]3[C@H]1C5` [morphine] the “tail flick latency compared with vehicle-treated mice” value ([2]; subcutaneous injection 8 mg/kg, 30 and 60 minutes post dosing) was “statistically significant tail flick latency” and the “tail flick latency compared with vehicle-treated mice” value ([2]; subcutaneous injection 8 mg/kg, 120 minutes post dosing) was “not”.
For `N#CCCS(=O)(=O)Cc1ccccc1` [3-Benzylsulfonylpropionitrile, 3-benzylsulfonylpropionitrile], the “tail flick latency compared with vehicle-treated mice” value ([2]; oral administration 500 mg/kg in DMSO, 30, 60, and 120 minutes post dosing) was “statistically significant tail flick latency” and the “anti-inflammatory activity in the mouse ear swelling model” value ([1]; applied topically, inflammation induced by arachidonic acid) was “anti-inflammatory”.
